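Dose response: 5 concentrations. Exposure: 48 h. Format: 96-well plates. Endpoint: linear interpolation; highest concentration if not reached. GI50 = concentration required for 50% inhibition of growth.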 Activity calls are given as the source filed them. No stated cut-off is given here; in the data, active = GI50 up to about 1.1 µM and inactive = higher.
What was measured:
Experiment in all cases: NCI anticancer screen, dose series, 48 h
CAKI-1 = test system: CAKI-1
CCRF-CEM = test system: CCRF-CEM
EKVX = test system: EKVX
HOP-62 = test system: HOP-62
K562 = test system: K562
MCF7 = test system: MCF7
NCI-H460 = test system: NCI-H460
OVCAR-3 = test system: OVCAR-3
OVCAR-8 = test system: OVCAR-8
SF-295 = test system: SF-295
SK-MEL-28 = test system: SK-MEL-28
SK-MEL-2 = test system: SK-MEL-2
SK-MEL-5 = test system: SK-MEL-5
SK-OV-3 = test system: SK-OV-3
SNB-19 = test system: SNB-19
SNB-75 = test system: SNB-75
SW-620 = test system: SW-620
TK-10 = test system: TK-10
U-251 = test system: U-251
UO-31 = test system: UO-31

Measured: GI50

CC1=Nc2c(N)nc(N)nc2N(C)C1
inactive: CAKI-1 > 100 µM | CCRF-CEM > 100 µM | EKVX > 100 µM | HOP-62 > 100 µM | K562 > 100 µM | MCF7 > 100 µM | NCI-H460 > 100 µM | OVCAR-3 > 100 µM | OVCAR-8 > 100 µM | SF-295 > 100 µM | SK-MEL-28 > 100 µM | SK-MEL-2 > 100 µM | SK-MEL-5 > 100 µM | SK-OV-3 > 100 µM | SNB-19 > 100 µM | SNB-75 > 100 µM | SW-620 > 100 µM | TK-10 > 100 µM | U-251 > 100 µM | UO-31 74.3 µM

Reference: ChEMBL document CHEMBL1201862, “PubChem BioAssay data set” (2004)
